Measurements reported in patent US20210386068A1, “COMPOSITIONS COMPRISING PYRIDINE CARBOXYLATE HERBICIDES AND VERY LONG CHAIN FATTY ACID (VLCFA) SYNTHESIS INHIBITOR HERBICIDES” (priority 2018, published 2021).
Values joined by “and” are separate entries in the source; they are usually repeats but may differ in a detail not shown here. Identical values can stand only once.

How the values were obtained:
[1] = tested on: Abutilon theophrasti (velvetleaf, ABUTH); assay: Greenhouse postemergence herbicidal effect, visual injury 20-22 d after spraying, velvetleaf (ABUTH); format: in vivo
From the text: (§1) Seeds of the desired test plant species were planted in a 90:10% v/v (volume/volume) mixture of PRO-MIX® BX (Premier Tech Horticulture, Quakertown, Pa., USA) and PROFILE® GREENS GRADE™ (Profile Products LLC, Buffalo Grove, Ill., USA) planting mixture, which typically has a pH of 5.2 to 6.2 and an organic matter content of at least 50 percent, in plastic pots with a surface area of 103.2 square centimeters (cm^2). In some aspects, to ensure good germination and healthy plants, a fungicide treatment and/or other chemical or physical treatment was applied. The plants were grown for 7-36 days (d) in a greenhouse with an approximate 14-hour (h) photoperiod which was maintained at about 23° C. during the day and 22° C. during the night. Nutrients and water were added on a regular basis and supplemental lighting was provided with overhead metal halide 1000-Watt lamps as necessary. The plants were employed for testing when they reached the second or third true leaf stage.
(§2) Emulsifiable concentrates of each of each pyridine carboxylate herbicide (Compound A or Compound B) were prepared at 100 grams acid equivalent per liter (g ae/L). The emulsifiable concentrates also included a safener, cloquintocet-mexyl, at 120 grams active ingredient per liter (g ai/L). […]
(§3) The treated plants and control plants were placed in a greenhouse as described above and watered by sub-irrigation to prevent wash-off of the test compounds. After 20-22 d, the condition of the test plants as compared with that of the control plants was determined visually and scored on a scale of 0 to 100 percent where 0 corresponds to no injury and 100 corresponds to complete kill.

[2] = tested on: Viola tricolor (wild pansy, VIOTR); assay: Greenhouse postemergence herbicidal effect, visual injury 20-22 d after spraying, wild pansy (VIOTR); format: in vivo; conditions: for % visual injury Obs: VIOTR
From the text: as §1
(§4) Emulsifiable concentrates of each of each pyridine carboxylate herbicide (Compound A or Compound B) were prepared at 100 grams acid equivalent per liter (g ae/L). The emulsifiable concentrates also included a safener, cloquintocet-mexyl, at 120 grams active ingredient per liter (g ai/L). An aliquot of each emulsifiable concentrate was placed in a 25 mL glass vial and diluted with an aqueous mixture of 1.25% (v/v) ACTIROB® B esterified rapeseed oil (Bayer Crop Science, Research Triangle Park, N.C., USA) or MSO® Concentrate with LECI-TECH® methylated soybean oil (Loveland Products, Loveland, Colo., USA) to obtain concentrated stock solutions at the highest application rate for each herbicide, based upon a 12 milliliter (mL) application volume at a rate of 187 liters per hectare (L/ha). The concentrated stock solutions were further diluted with an aqueous mixture of 1.25% v/v ACTIROB® B or MSO® Concentrate with LECI-TECH® to obtain stock solutions at reduced application rates for each herbicide. Spray solutions of the herbicide combinations (Compound A or Compound B plus VLCFA synthesis inhibitor herbicide) were prepared by adding weighed amounts or aliquots of the VLCFA synthesis inhibitor herbicide to the stock solutions of Compound A or Compound B to form 12-mL spray solutions in two-way combinations.
(§5) The spray solutions were applied to the plant material with an overhead Mandel track sprayer equipped with 8002E nozzles calibrated to deliver 187 L/ha over an application area of 0.503 square meters (m^2) at a spray height of 18 inches ([…] (cm)) above the average plant canopy. Control plants were sprayed in the same manner with the solvent blank. All pyridine carboxylate herbicide (component a) application rates are given as “g ae/ha” and all VLCFA synthesis inhibitor herbicide (component b) application rates are given as “g ai/ha.”
as §3

[3] = tested on: Salsola kali (Russian thistle, SASKR); assay: Greenhouse postemergence herbicidal effect, visual injury 20-22 d after spraying, Russian thistle (SASKR); format: in vivo; conditions: for % visual injury Obs: SASKR
From the text: as §1, §4, §5, §3

[4] = tested on: Anthemis arvensis (corn chamomile, ANTAR); assay: Greenhouse postemergence herbicidal effect, visual injury 20-22 d after spraying, corn chamomile (ANTAR); format: in vivo
From the text: as §1, §4, §5, §3

[5] = tested on: Viola arvensis (field pansy, VIOAR); assay: Greenhouse postemergence herbicidal effect, visual injury 20-22 d after spraying, field pansy (VIOAR); format: in vivo
From the text: as §1, §4, §5, §3

[6] = tested on: Cirsium arvense (Canadian thistle, CIRAR); assay: Greenhouse postemergence herbicidal effect, visual injury 20-22 d after spraying, Canadian thistle (CIRAR); format: in vivo
From the text: as §1, §4, §5, §3

[7] = tested on: Veronica persica (Persian speedwell, VERPE); assay: Greenhouse postemergence herbicidal effect, visual injury 20-22 d after spraying, Persian speedwell (VERPE); format: in vivo
From the text: as §1, §4, §5, §3

[8] = tested on: Triticum aestivum (spring wheat, TRZAS); assay: Greenhouse postemergence crop phytotoxicity, visual injury 20-22 d after spraying, spring wheat (TRZAS); format: in vivo; conditions: for % visual injury Obs: TRZAS
From the text: as §1, §4, §5, §3

[9] = tested on: Kochia scoparia (kochia, KCHSC); assay: Greenhouse postemergence herbicidal effect, visual injury 20-22 d after spraying, kochia (KCHSC); format: in vivo; conditions: for % visual injury Obs: KCHSC
From the text: as §1, §4, §5, §3

[10] = tested on: Ipomoea hederacea (ivyleaf morningglory, IPOHE); assay: Greenhouse postemergence herbicidal effect, visual injury 20-22 d after spraying, ivyleaf morningglory (IPOHE); format: in vivo
From the text: as §1, §2, §3

[11] = tested on: winter barley (HORVW); assay: Greenhouse postemergence crop phytotoxicity, visual injury 20-22 d after spraying, winter barley (HORVW); format: in vivo, Hordeum vulgare
From the text: as §1, §4, §5, §3

[12] = tested on: Polygonum convolvulus (wild buckwheat, POLCO); assay: Greenhouse postemergence herbicidal effect, visual injury 20-22 d after spraying, wild buckwheat (POLCO); format: in vivo
From the text: as §1, §4, §5, §3

[13] = tested on: Stellaria media (common chickweed, STEME); assay: Greenhouse postemergence herbicidal effect, visual injury 20-22 d after spraying, common chickweed (STEME); format: in vivo
From the text: as §1, §4, §5, §3

[14] = tested on: Helianthus annuus (common sunflower, HELAN); assay: Greenhouse postemergence herbicidal effect, visual injury 20-22 d after spraying, common sunflower (HELAN); format: in vivo
From the text: as §1, §2, §3

[15] = tested on: Matricaria chamomilla (wild chamomile, MATCH); assay: Greenhouse postemergence herbicidal effect, visual injury 20-22 d after spraying, wild chamomile (MATCH); format: in vivo
From the text: as §1, §4, §5, §3

[16] = tested on: Sinapis arvensis (wild mustard, SINAR); assay: Greenhouse postemergence herbicidal effect, visual injury 20-22 d after spraying, wild mustard (SINAR); format: in vivo; conditions: for % visual injury Obs: SINAR
From the text: as §1, §4, §5, §3

N#CCOC(=O)c1nc(-c2ccc3cc[nH]c3c2F)c(F)c(N)c1Cl [Compound A, cyanomethyl 4-amino-3-chloro-5-fluoro-6-(7-fluoro-1H-indol-6-yl)pyridine-2-carboxylate]
% visual injury Obs ([1]; Compound A 7.5 g/ha alone): 40% | % visual injury Obs ([1]; Compound A 10 g/ha alone): 48% | % visual injury VIOTR Obs ([2]; Compound A 7.5 g/ha): 13% | % visual injury VIOTR Obs ([2]; Compound A 10 g/ha): 15% | % visual injury VIOTR Obs ([2]; Compound A 15 g/ha): 15% | % visual injury Obs ([2]; Compound A 7.5 g/ha alone): 3% | % visual injury Obs ([2]; Compound A 10 g/ha alone): 3% | % visual injury SASKR Obs ([3]; Compound A 7.5 g/ha): 50% | % visual injury SASKR Obs ([3]; Compound A 10 g/ha): 60% | % visual injury SASKR Obs ([3]; Compound A 15 g/ha): 63% | % visual injury Obs ([3]; Compound A 7.5 g/ha alone): 60% and 45% and 38% | % visual injury Obs ([3]; Compound A 10 g/ha alone): 63% and 60% | % visual injury ANTAR Obs ([4]; Compound A 7.5 g/ha): 68% | % visual injury ANTAR Obs ([4]; Compound A 10 g/ha): 70% | % visual injury ANTAR Obs ([4]; Compound A 15 g/ha): 88% | % visual injury VIOAR Obs ([5]; Compound A 7.5 g/ha): 10% | % visual injury VIOAR Obs ([5]; Compound A 10 g/ha): 13% | % visual injury VIOAR Obs ([5]; Compound A 15 g/ha): 10% | % visual injury CIRAR Obs ([6]; Compound A 7.5 g/ha): 50% | % visual injury CIRAR Obs ([6]; Compound A 10 g/ha): 63% | % visual injury CIRAR Obs ([6]; Compound A 15 g/ha): 63% | % visual injury VERVE Obs ([7]; Compound A 7.5 g/ha): 78% | % visual injury VERVE Obs ([7]; Compound A 10 g/ha): 90% | % visual injury VERVE Obs ([7]; Compound A 15 g/ha): 93% | % visual injury TRZAS Obs ([8]; Compound A 7.5 g/ha): 0% | % visual injury TRZAS Obs ([8]; Compound A 10 g/ha): 0% | % visual injury TRZAS Obs ([8]; Compound A 15 g/ha): 0% | % visual injury Obs ([8]; Compound A 7.5 g/ha alone): 0% | % visual injury Obs ([8]; Compound A 10 g/ha alone): 0% | % visual injury KCHSC Obs ([9]; Compound A 7.5 g/ha): 63% | % visual injury KCHSC Obs ([9]; Compound A 10 g/ha): 65% | % visual injury KCHSC Obs ([9]; Compound A 15 g/ha): 63% | % visual injury Obs ([9]; Compound A 7.5 g/ha alone): 63% and 50% and 70% | % visual injury Obs ([9]; Compound A 10 g/ha alone): 63% and 58% and 55% and 70% | % visual injury Obs ([10]; Compound A 7.5 g/ha alone): 5% | % visual injury Obs ([10]; Compound A 10 g/ha alone): 0% | % visual injury HORVW Obs ([11]; Compound A 7.5 g/ha): 0% | % visual injury HORVW Obs ([11]; Compound A 10 g/ha): 0% | % visual injury HORVW Obs ([11]; Compound A 15 g/ha): 0% | % visual injury POLCO Obs ([12]; Compound A 7.5 g/ha): 65% | % visual injury POLCO Obs ([12]; Compound A 10 g/ha): 78% | % visual injury POLCO Obs ([12]; Compound A 15 g/ha): 85% | % visual injury STEME Obs ([13]; Compound A 7.5 g/ha): 85% | % visual injury STEME Obs ([13]; Compound A 10 g/ha): 88% | % visual injury STEME Obs ([13]; Compound A 15 g/ha): 89% | % visual injury Obs ([14]; Compound A 7.5 g/ha alone): 83% | % visual injury Obs ([14]; Compound A 10 g/ha alone): 88% | % visual injury MATCH Obs ([15]; Compound A 7.5 g/ha): 23% | % visual injury MATCH Obs ([15]; Compound A 10 g/ha): 35% | % visual injury MATCH Obs ([15]; Compound A 15 g/ha): 45% | % visual injury SINAR Obs ([16]; Compound A 7.5 g/ha): 88% | % visual injury SINAR Obs ([16]; Compound A 10 g/ha): 91% | % visual injury SINAR Obs ([16]; Compound A 15 g/ha): 91% | % visual injury Obs ([16]; Compound A 7.5 g/ha alone): 88% and 85% and 83% | % visual injury Obs ([16]; Compound A 10 g/ha alone): 90% and 92% and 88%
